Test results reported in US20200062773A1, “4,4a,5,7-TETRAHYDRO-3H-FURO[3,4-b]PYRIDINYL COMPOUNDS” (Janssen Pharmaceutlca NV, priority 2016, published 2020).

How the values were obtained:
BACE1 = biological target: T1, BACE1 (Homo sapiens, UniProt P56817); experiment: BACE1 biochemical FRET based assay; conditions: Method 1: recombinant BACE1 1 μg/ml, 120 min at room temperature, pH 5.0; for IC50: read-out: Biochemical FRET based assay pIC50 (converted)
T1 construct: recombinant BACE1 protein in a final concentration of 1 μg/ml
T1 sequence (P56817 46-501): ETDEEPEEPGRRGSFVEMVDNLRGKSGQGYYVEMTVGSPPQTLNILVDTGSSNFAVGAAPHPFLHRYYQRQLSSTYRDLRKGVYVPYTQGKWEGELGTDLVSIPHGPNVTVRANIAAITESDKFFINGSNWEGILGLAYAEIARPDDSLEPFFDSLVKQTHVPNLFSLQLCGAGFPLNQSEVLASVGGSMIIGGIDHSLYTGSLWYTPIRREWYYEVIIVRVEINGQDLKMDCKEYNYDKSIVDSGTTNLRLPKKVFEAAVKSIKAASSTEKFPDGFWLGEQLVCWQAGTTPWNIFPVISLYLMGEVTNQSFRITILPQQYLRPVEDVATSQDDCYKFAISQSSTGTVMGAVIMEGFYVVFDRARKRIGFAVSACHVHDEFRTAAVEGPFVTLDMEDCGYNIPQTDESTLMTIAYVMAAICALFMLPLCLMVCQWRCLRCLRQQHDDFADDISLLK
Text: BACE1 Biochemical Fret Based Assay
(§1) This assay is a Fluorescence Resonance Energy Transfer Assay (FRET) based assay. The substrate for this assay is an APP derived 13 amino acids peptide that contains the ‘Swedish’ Lys-Met/Asn-Leu mutation of the amyloid precursor protein (APP) beta-site APP-cleaving enzyme cleavage site. This substrate also contains two fluorophores: (7-methoxycoumarin-4-yl) acetic acid (Mca) is a fluorescent donor with excitation wavelength at 320 nm and emission at 405 nm and 2,4-Dinitrophenyl (Dnp) is a proprietary quencher acceptor. […] Upon cleavage by BACE1, the fluorophore Mca is separated from the quenching group Dnp, restoring the full fluorescence yield of the donor. The increase in fluorescence is linearly related to the rate of proteolysis.
Briefly in a 384-well format recombinant BACE1 protein in a final concentration of 1 μg/ml is incubated for 120 minutes at room temperature with 10 μm substrate in incubation buffer (40 mM Citrate buffer pH 5.0, 0.04% PEG, 4% DMSO) in the absence or presence of compound. Next the amount of proteolysis is directly measured by fluorescence measurement at T=0 and T=120 (excitation at 320 nm and emission at 405 nm). Results are expressed in RFU (Relative Fluorescence Units), as difference between T120 and T0.
(§2) A best-fit curve is fitted by a minimum sum of squares method to the plot of % Controlmin versus compound concentration. From this an IC50 value (inhibitory concentration causing 50% inhibition of activity) can be obtained.

[1] = test system: Abeta 1-42 produced and secreted into the medium of human neuroblastoma SKNBE2 cells; experiment: Cellular αLisa assay in SKNBE2 cells; assay type: cell-based; conditions: human neuroblastoma SKNBE2 cells expressing hAPP695, 18 hours incubation; for IC50: Homo sapiens, SKNBE2, 18 h, read-out: Cellular αLisa assay in SKNBE2 cells Abeta 42 pIC50 (converted)
Protocol: Cellular αLisa Assay in SKNBE2 Cells
In two αLisa assays the levels of Abeta 1-42 produced and secreted into the medium of human neuroblastoma SKNBE2 cells are quantified. The assay is based on the human neuroblastoma SKNBE2 expressing the wild type Amyloid Precursor Protein (hAPP695). The compounds are diluted and added to these cells, incubated for 18 hours and then measurements of Abeta 1-42 are taken. Abeta 1-42 are measured by sandwich αLisa. αLisa is a sandwich assay using biotinylated antibody AbN/25 attached to streptavidin coated beads and antibody cAb42/26 conjugated acceptor beads for the detection of Abeta 1-42 respectively. In the presence of Abeta 1-42, the beads come into close proximity. The excitation of the donor beads provokes the release of singlet oxygen molecules that trigger a cascade of energy transfer in the acceptor beads, resulting in light emission. Light emission is measured after 1 hour incubation (excitation at […] and emission at 615 nm).
as §2

BACE2 = biological target: T2, BACE2 (Homo sapiens, UniProt Q9Y5Z0); experiment: BACE2 biochemical FRET based assay; conditions: recombinant BACE2, 450 minutes at room temperature, pH 5.0; for IC50: read-out: Biochemical FRET based assay pIC50 (converted)
T2 construct: recombinant BACE2 protein in a final concentration of 0.4 μg/ml
T2 sequence (Q9Y5Z0 63-518): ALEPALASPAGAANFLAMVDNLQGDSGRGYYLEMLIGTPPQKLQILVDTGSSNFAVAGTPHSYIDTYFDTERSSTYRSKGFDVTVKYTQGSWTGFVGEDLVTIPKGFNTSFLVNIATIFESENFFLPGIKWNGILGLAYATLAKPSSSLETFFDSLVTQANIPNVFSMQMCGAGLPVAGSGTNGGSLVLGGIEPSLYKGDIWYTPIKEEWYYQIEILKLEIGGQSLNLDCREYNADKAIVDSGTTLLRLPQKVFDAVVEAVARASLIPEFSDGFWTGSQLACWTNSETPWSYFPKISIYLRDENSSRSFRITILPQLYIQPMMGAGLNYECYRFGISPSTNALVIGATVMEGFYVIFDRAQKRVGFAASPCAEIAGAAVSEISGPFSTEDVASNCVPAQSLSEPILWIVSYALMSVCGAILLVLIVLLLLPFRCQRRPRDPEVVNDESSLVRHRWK
Text: BACE2 Biochemical FRET Based Assay
as §1, with “assay” for “assay is an APP derived 13 amino acids peptide that”, “the beta-site APP-cleaving enzyme,” for “BACE1,”
Briefly in a 384-well format recombinant BACE2 protein in a final concentration of 0.4 μg/ml is incubated for 450 minutes at room temperature with 10 μM substrate in incubation buffer (50 mM Citrate buffer pH 5.0, 0.05% PEG, no DMSO) in the absence or presence of compound. Next the amount of proteolysis is directly measured by fluorescence measurement at T=0 and T=450 (excitation at 320 nm and emission at 405 nm). Results are expressed in RFU (Relative Fluorescence Units), as difference between T450 and T0.
as §2

Compound | Biochemical FRET based assay pIC50 (BACE1) | Cellular αLisa assay in SKNBE2 cells Abeta 42 pIC50 [1] | Biochemical FRET based assay pIC50 (BACE2) | IC50 (BACE1) | IC50 (BACE2) | IC50 [1]
C[C@H]1OC[C@]2(c3cc(NC(=O)c4cnc(OCF)cn4)ccc3F)N=C(N)[C@](C)(C#N)C[C@H]12 (single isomer, unassigned) [9b] | 8.28 | 8.74 | 7.19 |  |  | 
C[C@@H]1OC[C@@]2(c3cc(NC(=O)c4cnc(OCF)cn4)ccc3F)N=C(N)[C@@](C)(C#N)C[C@@H]12 (single isomer, unassigned) [9c] | 5.76 | 5.8 | <5 |  |  | 
C[C@H]1OC[C@]2(c3cc(NC(=O)c4ccc(F)cn4)ccc3F)N=C(N)[C@](C)(C#N)C[C@H]12 (single isomer, unassigned) [10b] | 8.25 | 8.23 | 8.28 |  |  | 
C[C@@H]1OC[C@@]2(c3cc(NC(=O)c4ccc(F)cn4)ccc3F)N=C(N)[C@@](C)(C#N)C[C@@H]12 (single isomer, unassigned) [10c] | 5.01 | 5.29 | <5 |  |  | 
COc1cnc(C(=O)Nc2ccc(F)c([C@]34CO[C@H](C)[C@H]3C[C@@](C)(S(C)(=O)=O)C(N)=N4)c2)cn1 (single isomer, unassigned) [13a] | 7 | 7.19 | 5.9 |  |  | 
COc1cnc(C(=O)Nc2ccc(F)c([C@@]34CO[C@@H](C)[C@@H]3C[C@@](C)(S(C)(=O)=O)C(N)=N4)c2)cn1 (single isomer, unassigned) [13b] | 5.48 | 5.75 | <5 |  |  | 
COc1cnc(C(=O)Nc2ccc(F)c([C@@]34CO[C@@H](C)[C@@H]3C[C@](C)(S(C)(=O)=O)C(N)=N4)c2)cn1 (single isomer, unassigned) [13c] | 6.05 | 6.21 | 5.41 |  |  | 
COc1cnc(C(=O)Nc2ccc(F)c([C@]34CO[C@H](C)[C@H]3C[C@](C)(S(C)(=O)=O)C(N)=N4)c2)cn1 (single isomer, unassigned) [13d] | <5 | <5.05 | <5 |  |  | 
CC1OCC2(c3cc(NC(=O)c4cnc(-n5cncn5)cn4)ccc3F)N=C(N)C(C)(C#N)CC12 (single isomer, unassigned) [15a] |  | 8.19 |  | 7.41 nM | 158 nM | 
CC1OCC2(c3cc(NC(=O)c4cnc(-n5cncn5)cn4)ccc3F)N=C(N)C(C)(C#N)CC12 (single isomer, unassigned) [15b] |  | 5.62 |  | 1550 nM | > 10000 nM | 
CC1(C#N)CC2C(C(F)F)OCC2(c2cc(NC(=O)c3cnc(OCF)cn3)ccc2F)N=C1N (single isomer, unassigned) [25a] |  | 7.74 |  | 8.91 nM | 141 nM | 
CC1(C#N)CC2C(C(F)F)OCC2(c2cc(NC(=O)c3cnc(OCF)cn3)ccc2F)N=C1N (single isomer, unassigned) [25b] |  | 7.13 |  | 52.5 nM | 891 nM | 
CC1OCC2(c3cc(NC(=O)c4cnc(OCF)cn4)cc(F)c3F)N=C(N)C(C)(C#N)CC12 (single isomer, unassigned) [31a] |  | 7.15 |  | 66.1 nM | 2400 nM | 
CC1OCC2(c3cc(NC(=O)c4cnc(OCF)cn4)cc(F)c3F)N=C(N)C(C)(C#N)CC12 (single isomer, unassigned) [31b] |  | <5.05 |  | 8710 nM | > 10000 nM | 
CC1OCC2(c3cc(NC(=O)c4cnc(OCF)cn4)cc(F)c3F)N=C(N)C(C)(C#N)CC12 (single isomer, unassigned) [31c] |  | 7.57 |  | 15.5 nM | 158 nM | 
CC1OCC2(c3cc(NC(=O)c4cnc(OCF)cn4)cc(F)c3F)N=C(N)C(C)(C#N)CC12 (single isomer, unassigned) [31d] |  | <5.05 |  | > 10000 nM | > 10000 nM | 
CC1OCC2(c3cc(NC(=O)c4cnc(-n5cncn5)cn4)cc(F)c3F)N=C(N)C(C)(C#N)CC12 (single isomer, unassigned) [32a] |  | 7.51 |  | 19.1 nM | 347 nM | 
CC1OCC2(c3cc(NC(=O)c4cnc(-n5cncn5)cn4)cc(F)c3F)N=C(N)C(C)(C#N)CC12 (single isomer, unassigned) [32b] |  | 5.97 |  | 309 nM | 9550 nM | 
CC1OCC2(c3cc(NC(=O)c4ccc(C#N)cn4)cc(F)c3F)N=C(N)C(C)(C#N)CC12 (single isomer, unassigned) [33a] |  | 5.14 |  | 7590 nM | > 10000 nM | 
CC1OCC2(c3cc(NC(=O)c4ccc(C#N)cn4)cc(F)c3F)N=C(N)C(C)(C#N)CC12 (single isomer, unassigned) [33b] |  | 7.81 |  | 5.5 nM | 44.7 nM | 
N#Cc1ccc(C(=O)Nc2ccc(F)c([C@@]34CO[C@@H](C(F)(F)F)[C@@H]3CCC(N)=N4)c2)nc1 [11b] |  | 5.9 |  |  |  | 
Cl.NC1=N[C@]2(c3cc(NC(=O)c4ccc(F)cn4)ccc3F)CO[C@@H](C(F)(F)F)[C@@H]2CC1 [12b] | 5.27 | 5.45 |  |  |  | 
CC(C)(F)[C@H]1OC[C@]2(c3cc(NC(=O)c4ccc(C#N)cn4)ccc3F)N=C(N)[C@](C)(C#N)C[C@H]12 [21a] |  | 8.62 |  |  |  | 
CC1(C#N)CC2C(CF)OCC2(c2cc(NC(=O)c3ccc(C#N)cn3)ccc2F)N=C1N (stereo not shown) [24a] |  |  |  | 2.14 nM |  | 2.88 nM
Cc1cc(C#N)cnc1C(=O)Nc1ccc(F)c(C23COC(C(C)(F)F)C2CC(C)(C#N)C(N)=N3)c1 (stereo not shown) [compound 37] |  |  |  | 1.91 nM |  | 1.78 nM
CC1(C#N)CC2C(C(C)(F)F)OCC2(c2cc(NC(=O)c3cnc(OC(F)F)cn3)ccc2F)N=C1N (stereo not shown) [compound 38] |  |  |  | 0.955 nM |  | 3.8 nM
